# pIC50: −log10 of the molar value.
# System: AKT protein phosphorylated on serine 473 (P-AKT-S473) in PC3 human prostate carcinoma cells
# Test: pAKT expression in PC3 human prostate carcinoma cells, MSD Multi-spot Biomarker detection (Test A)
# Format: cell-based
# Details: Homo sapiens, PC-3, PC3 cells, 1 to 2 h incubation, P-AKT-S473, absolute IC50, mean of two independent experiments
# Summary of the method: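 Lysate pAKT-S473 measured by electrochemiluminescent sandwich immunoassay; inhibition versus cell-free background and DMSO-only wells, IC50 averaged over two experiments.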
row,pIC50,SMILES
1,7.40,"CC1Cc2ccc(F)cc2N1C(=O)Cc1nc(N2CCOCC2)c(F)c(=O)[nH]1 (stereo not drawn) [Example 32a, 5-fluoro-2-[2-((−)-6-fluoro-2-methyl-2,3-dihydroindol-1-yl)-2-oxoethyl]-6-morpholin-4-yl-3H-pyrimidin-4-one]"
2,6.95,"O=C(Cc1nc(N2CCOCC2)cc(=O)[nH]1)N1CCc2c(N3CCOCC3)cccc21 [Example 33d, 6-(morpholin-4-yl)-2-{2-[4-(morpholin-4-yl)-2,3-dihydro-1H-indol-1-yl]-2-oxoethyl}pyrimidin-4(3H)-one]"
3,8.70,"CC1Cc2c(ccc(F)c2Cl)N1C(=O)Cc1nc(N2CCOCC2)c(F)c(=O)[nH]1 (stereo not shown) [Example 34a, 5-Fluoro-2-[2-(4-chloro-5-fluoro-2-methyl-2,3-dihydroindol-1-yl)-2-oxoethyl]-6-morpholin-4-yl-3H-pyrimidin-4-one]"
4,6.85,"C[C@H]1Cc2ccccc2N1C(=O)Cc1nc(N2CCOCC2)c(Cl)c(=O)[nH]1 [Example 35a, 5-chloro-2-[2-((S)-2-methyl-2,3-dihydroindol-1-yl)-2-oxoethyl]-6-morpholin-4-yl-3H-pyrimidin-4-one]"
5,7.26,"C[C@@H]1Cc2ccccc2N1C(=O)Cc1nc(N2CCOCC2)c(Cl)c(=O)[nH]1 [Example 36a, 5-chloro-2-[2-((R)-2-methyl-2,3-dihydroindol-1-yl)-2-oxoethyl]-6-morpholin-4-yl-3H-pyrimidin-4-one]"
6,7.25,"C[C@H]1Cc2ccccc2N1C(=O)Cc1nc(N2CCOCC2)c(Br)c(=O)[nH]1 [Example 37a, 5-bromo-2-[2-((S)-2-methyl-2,3-dihydroindol-1-yl)-2-oxoethyl]-6-morpholin-4-yl-3H-pyrimidin-4-one]"
7,5.94,"O=C(Cc1nc(N2CCOCC2)c(F)c(=O)[nH]1)N1c2ccccc2C[C@@H]1CO [Example 38a, 5-Fluoro-2-[2-((+)-2-hydroxymethyl-2,3-dihydroindol-1-yl)-2-oxoethyl]-6-morpholin-4-yl-3H-pyrimidin-4-one]"
8,7.82,"O=C(Cc1nc(N2CCOCC2)cc(=O)[nH]1)N1c2ccccc2CC1CF (stereo not drawn) [Example 38d, 2-[2-((+)-2-Fluoromethyl-2,3-dihydroindol-1-yl)-2-oxoethyl]-6-morpholin-4-yl-3H-pyrimidin-4-one]"
9,6.25,"O=C(Cc1nc(N2CCOCC2)c(F)c(=O)[nH]1)N1c2ccccc2C[C@H]1CO [Example 39a, 5-Fluoro-2-[2-((−)-2-hydroxymethyl-2,3-dihydroindol-1-yl)-2-oxoethyl]-6-morpholin-4-yl-3H-pyrimidin-4-one]"
10,7.29,"O=C(Cc1nc(N2CCOCC2)cc(=O)n1-c1ccccc1)N1CCc2ccccc21 [Example 39d, 2-[2-(2,3-Dihydroindol-1-yl)-2-oxoethyl]-6-morpholin-4-yl-3-phenyl-3H-pyrimidin-4-one]"
11,6.61,"CC(C)[C@@H]1Cc2ccccc2N1C(=O)Cc1nc(N2CCOCC2)cc(=O)[nH]1 [Example 40c, (+)-2-[2-(2-isopropyl-2,3-dihydroindol-1-yl)-2-oxoethyl]-6-morpholin-4-yl-3H-pyrimidin-4-one]"
12,7.54,"CC(C(=O)N1CCc2c(F)cccc21)c1nc(N2CCOCC2)cc(=O)[nH]1 (stereo not shown) [Example 41c, 2-[1-(4-fluoro-2,3-dihydro-1H-indol-1-yl)-1-oxopropan-2-yl]-6-(morpholin-4-yl)pyrimidin-4(3H)-one]"
13,6.88,"Nn1c(CC(=O)N2CCc3ccccc32)nc(N2CCOCC2)cc1=O [Example 41d, 3-amino-2-[2-(2,3-dihydro-1H-indol-1-yl)-2-oxoethyl]-6-(morpholin-4-yl)pyrimidin-4(3H)-one]"
14,7.62,"N#Cn1c(CC(=O)N2CCc3ccccc32)nc(N2CCOCC2)cc1=O [Example 42d, 2-[2-(2,3-dihydro-1H-indol-1-yl)-2-oxoethyl]-4-(morpholin-4-yl)-6-oxopyrimidine-1(6H)-carbonitrile]"
15,7.00,"N#Cc1cccc2c1CCN2C(=O)Cc1nc(N2CCOCC2)cc(=O)[nH]1 [Example 46c, 1-{[4-(morpholin-4-yl)-6-oxo-1,6-dihydropyrimidin-2-yl]acetyl}-2,3-dihydro-1H-indole-4-carbonitrile]"

# Same assay, conditions: PC3 cells, 1 to 2 h incubation, P-AKT-S473, absolute IC50, mean of two independent experiments
row,pIC50,SMILES
1,7.11,"CC1Cc2ccc(F)cc2N1C(=O)Cc1nc(N2CCOCC2)c(F)c(=O)[nH]1 (stereo not drawn) [Example 33a, 5-Fluoro-2-[2-((+)-6-fluoro-2-methyl-2,3-dihydroindol-1-yl)-2-oxoethyl]-6-morpholin-4-yl-3H-pyrimidin-4-one]"
2,7.57,"CC1Cc2ccc(F)cc2N1C(=O)Cc1nc(N2CCOCC2)cc(=O)[nH]1 (stereo not drawn) [Example 35c, 2-{2-[(+)-6-fluoro-2-methyl-2,3-dihydro-1H-indol-1-yl]-2-oxoethyl}-6-(morpholin-4-yl)pyrimidin-4(3H)-one]"
3,8.05,"CC1Cc2ccc(F)cc2N1C(=O)Cc1nc(N2CCOCC2)cc(=O)[nH]1 (stereo not drawn) [Example 36c, 2-{2-[(−)-6-fluoro-2-methyl-2,3-dihydro-1H-indol-1-yl]-2-oxoethyl}-6-(morpholin-4-yl)pyrimidin-4(3H)-one]"
4,7.89,"O=C(Cc1nc(N2CCOCC2)cc(=O)[nH]1)N1c2ccccc2CC1CF (stereo not drawn) [Example 40d, 2-[2-((−)-2-Fluoromethyl-2,3-dihydroindol-1-yl)-2-oxoethyl]-6-morpholin-4-yl-3H-pyrimidin-4-one]"

# Reference: patent publication US9133168B2, “Pyrimidine derivatives, preparation thereof, and pharmaceutical use thereof as akt(pkb) phosphorylation inhibitors” (SANOFI, priority 2010, dated 2015)
